Assay results from US7879887B2, “α-amino acid derivatives and medicaments containing the same as an active ingredient” (Nissan Chemical Industries, Ltd., priority 2006, dated 2011).

What was measured:
Aurora A = target: T1, Aurora A (Homo sapiens, UniProt O14965); assay: In vitro kinase assay, Aurora A; format: biochemical; settings: recombinant protein (Upstate)
T1 construct: purchased Upstate Inc. 14-511
T1 sequence (O14965 1-403): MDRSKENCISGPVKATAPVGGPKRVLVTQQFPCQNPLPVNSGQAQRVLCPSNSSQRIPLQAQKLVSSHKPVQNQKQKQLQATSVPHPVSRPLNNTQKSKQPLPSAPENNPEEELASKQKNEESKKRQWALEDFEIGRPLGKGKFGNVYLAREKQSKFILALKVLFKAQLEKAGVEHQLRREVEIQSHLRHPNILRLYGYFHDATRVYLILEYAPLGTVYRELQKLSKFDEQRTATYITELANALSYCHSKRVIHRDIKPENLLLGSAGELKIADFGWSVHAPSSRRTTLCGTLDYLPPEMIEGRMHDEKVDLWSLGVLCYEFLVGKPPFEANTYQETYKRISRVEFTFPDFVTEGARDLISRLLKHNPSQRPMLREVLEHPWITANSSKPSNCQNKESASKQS
How it was run: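 Recombinant human enzymes assayed per supplier protocol. IC50 derived with compound-free wells set as 0% inhibition and compound- and enzyme-free wells as 100% inhibition.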

CDK1/Cyclin B complex = target: T2, CDK1/Cyclin B complex (Homo sapiens, UniProt P06493); assay: In vitro kinase assay, CDK1/Cyclin B complex; format: biochemical; settings: recombinant protein (Upstate)
T2 construct: purchased Upstate Inc. 14-450
Procedure: Inhibitory activity against Aurora A, CDK1/Cyclin B complex, CDK2/Cyclin E complex and CDK3/Cyclin E complex were measured by in vitro kinase assay using recombinant proteins. The assays were carried out by using recombinant proteins (Upstate Inc.) for Aurora A, CDK1/Cyclin B complex, CDK2/Cyclin E complex and CDK3/Cyclin E complex (respective cat. nos. 14-511, 14-450, 14-448 and 14-487), in accordance with the procedure described in the product instructions thereof. The 50% inhibitory concentrations (IC50 values) were calculated by assigning measured values in the case of not containing a test compound to an inhibition of 0%, and assigning measured values in the case of not containing a test compound and enzyme to an inhibition of 100%.

CDK2/Cyclin E complex = CDK2/Cyclin E complex (Homo sapiens, UniProt P24941); assay: In vitro kinase assay, CDK2/Cyclin E complex; format: biochemical; settings: recombinant protein (Upstate); read-out: CDK2/cyclinE IC50
Procedure: (§1) Inhibitory activity against Aurora A, CDK1/Cyclin B complex, CDK2/Cyclin E complex and CDK3/Cyclin E complex were measured by in vitro kinase assay using recombinant proteins.

CDK3/Cyclin E complex = target: T3, CDK3/Cyclin E complex (Homo sapiens, UniProt Q00526); assay: In vitro kinase assay, CDK3/Cyclin E complex; format: biochemical; settings: recombinant protein (Upstate); read-out: CDK3/cyclinE IC50
T3 construct: purchased Upstate Inc. 14-487
Procedure: as §1

[1] = system: colon carcinoma cell line SW620; assay: Cell proliferation inhibitory activity, SW620; format: cell-based, human; settings: Homo sapiens, SW-620, 96 h, cells counted 4 days later with Cell Counting Kit-8
How it was run: (§2)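 IC50 values come from a 4-day proliferation assay in which cells were cultured with multiple test compound concentrations and quantified by Cell Counting Kit-8.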

[2] = system: pancreatic cancer cell line MIAPaCa-2; assay: Cell proliferation inhibitory activity, MIAPaCa-2; format: cell-based; settings: Homo sapiens, MIA PaCa-2, 96 h; cells counted 4 days later, Cell Counting Kit-8
Procedure: (§3) Evaluations were carried out using colon carcinoma cell line SW620 (Cat. No. CCL-227), lung carcinoma cell line NCI-H460 (Cat. No. HTB-177), prostate cancer cell line DU 145 (Cat. No. HTB-81), breast cancer cell line MDA-MB-231 (Cat. No. HTB26) and leukemia cell line KG-1a (Cat. No. CCL-246.1) purchased from ATCC, pancreatic cancer cell line MIAPaCa-2 (Cat. No. CRL-1420) purchased from Dainippon Pharmaceutical, and ovarian cancer cell line IGROV1 received from the Netherland Cancer Institute. The cells were cultured under the conditions recommended by the supplier for each cell line, or with respect to IGROV1, according to the method described in Cancer Res. 59: 4559-4563, 1999. Cells suspended in media were added to solutions containing the test substances at various concentrations followed by culturing in a 5% CO2 incubator at 37° C. The numbers of cells were counted 4 days later with the Cell Counting Kit-8. IC50 values were calculated by assigning measured values in the case of not containing a test substance to an inhibition of 0%, and assigning measured values in the case of not containing a test substance or cells to an inhibition of 100%.

[3] = system: prostate cancer cell line DU 145; assay: Cell proliferation inhibitory activity, DU 145; format: cell-based, human; settings: Homo sapiens, 96 h, cells counted 4 days later with Cell Counting Kit-8
How it was run: as §2

[4] = system: lung carcinoma cell line NCI-H460; assay: Cell proliferation inhibitory activity, NCI-H460; format: cell-based; settings: Homo sapiens, 96 h, cells counted 4 days later with Cell Counting Kit-8
Procedure: as §3

[5] = system: breast cancer cell line MDA-MB-231; assay: Cell proliferation inhibitory activity, MDA-MB-231; format: cell-based; settings: Homo sapiens, 96 h, cells counted 4 days later with Cell Counting Kit-8
Procedure: as §3

[6] = system: ovarian cancer cell line IGROV1; assay: Cell proliferation inhibitory activity, IGROV1; format: cell-based; settings: Homo sapiens, IGROV-1, 96 h, cells counted 4 days later with Cell Counting Kit-8
Procedure: as §3

leukemia cell line KG-1a = assay: Cell proliferation inhibitory activity, KG-1a; format: cell-based; settings: Homo sapiens, 96 h, cells counted 4 days later with Cell Counting Kit-8
How it was run: as §2

T3 sequence (Q00526 whole entry): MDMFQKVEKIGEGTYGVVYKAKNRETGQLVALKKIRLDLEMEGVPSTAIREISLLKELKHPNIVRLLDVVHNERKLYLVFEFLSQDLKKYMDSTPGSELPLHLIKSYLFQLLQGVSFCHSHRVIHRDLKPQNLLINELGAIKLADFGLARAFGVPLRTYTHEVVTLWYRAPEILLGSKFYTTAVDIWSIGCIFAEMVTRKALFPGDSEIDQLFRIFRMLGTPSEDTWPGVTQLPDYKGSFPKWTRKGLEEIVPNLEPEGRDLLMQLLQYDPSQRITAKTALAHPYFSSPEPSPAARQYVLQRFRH
T3 sequence (P24864 whole entry partner): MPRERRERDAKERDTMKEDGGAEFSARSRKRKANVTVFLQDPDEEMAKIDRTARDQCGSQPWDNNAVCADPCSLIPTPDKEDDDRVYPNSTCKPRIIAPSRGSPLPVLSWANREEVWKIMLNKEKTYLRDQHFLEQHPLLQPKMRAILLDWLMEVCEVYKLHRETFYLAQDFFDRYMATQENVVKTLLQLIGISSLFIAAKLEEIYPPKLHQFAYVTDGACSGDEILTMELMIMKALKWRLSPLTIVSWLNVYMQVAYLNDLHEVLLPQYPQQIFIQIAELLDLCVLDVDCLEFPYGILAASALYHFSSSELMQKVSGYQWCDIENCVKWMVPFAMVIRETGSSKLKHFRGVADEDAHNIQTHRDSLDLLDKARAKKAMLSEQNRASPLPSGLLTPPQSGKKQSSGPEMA
T2 sequence (P06493 whole entry): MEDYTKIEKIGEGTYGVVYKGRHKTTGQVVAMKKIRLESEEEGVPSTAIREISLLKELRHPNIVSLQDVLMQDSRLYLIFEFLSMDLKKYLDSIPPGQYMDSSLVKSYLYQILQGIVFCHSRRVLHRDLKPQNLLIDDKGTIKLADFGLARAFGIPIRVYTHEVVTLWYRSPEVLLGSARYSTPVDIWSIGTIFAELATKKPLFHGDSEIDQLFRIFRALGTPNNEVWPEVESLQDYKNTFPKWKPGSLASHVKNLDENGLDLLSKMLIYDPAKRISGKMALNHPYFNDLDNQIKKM
T2 sequence (P14635 whole entry partner): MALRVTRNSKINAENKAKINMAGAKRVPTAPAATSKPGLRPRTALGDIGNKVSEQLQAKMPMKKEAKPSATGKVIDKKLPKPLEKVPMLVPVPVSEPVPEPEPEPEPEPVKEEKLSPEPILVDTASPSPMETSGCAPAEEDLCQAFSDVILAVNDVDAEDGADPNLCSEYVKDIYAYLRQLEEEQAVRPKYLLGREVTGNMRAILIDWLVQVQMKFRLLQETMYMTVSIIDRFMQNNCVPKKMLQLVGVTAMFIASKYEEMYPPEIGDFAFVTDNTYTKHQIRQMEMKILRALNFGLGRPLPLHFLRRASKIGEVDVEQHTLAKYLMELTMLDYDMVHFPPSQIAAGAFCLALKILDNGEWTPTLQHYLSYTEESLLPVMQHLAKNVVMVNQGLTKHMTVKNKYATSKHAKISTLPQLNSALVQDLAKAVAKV

Compound | IC50 (Aurora A) | IC50 (CDK1/Cyclin B complex) | IC50 (CDK2/Cyclin E complex) | IC50 (CDK3/Cyclin E complex) | IC50 [1] | IC50 [2] | IC50 [3] | IC50 [4] | IC50 [5] | IC50 [6] | IC50 (leukemia cell line KG-1a)
CC(Nc1cccc(O)c1)C(=O)Nc1nc2ccc3[nH]ncc3c2s1 (centres unmarked) [compound 23] | 47 nM | 150 nM | 30 nM | 47 nM | 500 nM | 3500 nM | 1600 nM | 1400 nM | 1600 nM | 1300 nM | < 100 nM
CC(C)(Nc1ccc(F)c(C(N)=O)c1)C(=O)Nc1nc2c(C(F)(F)F)cc3[nH]ncc3c2s1 [compound 138] | 263 nM | 53 nM | 37 nM | 12 nM | 2100 nM | 4300 nM | 2300 nM | 1600 nM |  | 4500 nM | 
CC(C)(Nc1ccc(Cl)c(OCC(O)CO)c1)C(=O)Nc1nc2c(C(F)(F)F)cc3[nH]ncc3c2s1 (centres unmarked) [compound 99] | 142 nM | 140 nM | 20 nM | 8.7 nM | 700 nM | 4500 nM | 1700 nM | 4100 nM | 3000 nM | 4400 nM | 300 nM
CC(C)(Nc1ccc(Cl)c(C(=O)NOCc2ccccc2)c1)C(=O)Nc1nc2c(C(F)(F)F)cc3[nH]ncc3c2s1 [compound 98] | 65 nM |  |  | 128 nM | 500 nM | 4000 nM | 4400 nM | 1800 nM | 2600 nM |  | 
